Here are results for one substance from patent US8486892B2, “Blood coagulation factor inhibitors” (Novo Nordisk Health Care AG, priority 2008, dated 2013).

The target of the test is T1, 40K-PEG-rFVIIa (Homo sapiens, UniProt P08709).
T1 construct: Typically, Factor VII is cleaved between residues 152 and 153 to yield Factor VIIa; 40K-PEG (about 40 kDa PEG on a glycan)
T1 sequence (P08709 213-466 limits assumed): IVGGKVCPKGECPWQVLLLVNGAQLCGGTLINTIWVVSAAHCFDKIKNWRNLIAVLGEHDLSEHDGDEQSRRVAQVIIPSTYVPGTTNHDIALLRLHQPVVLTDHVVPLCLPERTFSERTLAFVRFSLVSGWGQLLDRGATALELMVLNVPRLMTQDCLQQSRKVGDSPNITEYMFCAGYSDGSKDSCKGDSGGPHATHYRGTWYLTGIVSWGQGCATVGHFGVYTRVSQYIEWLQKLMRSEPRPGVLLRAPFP
T1 sequence (P08709 61-212 limits assumed): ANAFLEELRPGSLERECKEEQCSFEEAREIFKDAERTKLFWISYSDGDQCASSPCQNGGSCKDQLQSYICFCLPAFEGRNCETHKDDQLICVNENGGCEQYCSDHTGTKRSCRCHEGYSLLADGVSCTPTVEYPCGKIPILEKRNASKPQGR
The test is described as follows: Stability experiment on 40K-PEG-rFVIIa in solution, clot activity by One-stage Coagulation Assay (Assay 4). In kind it is biochemical. The conditions noted are these: 20 mg/ml 40K-PEG-rFVIIa, pH 7.0, 3 months at 25° C. Here is the method: Factor VII polypeptides may also be assayed for specific activities (“clot activity”) by using a one-stage coagulation assay (Assay 4). For this purpose, the sample to be tested is diluted in 50 mM PIPES-buffer (pH 7.2), 1% BSA and 40 μl is incubated with 40 μl of Factor VII deficient plasma and 80 μl of human recombinant tissue factor containing 10 mM Ca^2+ and synthetic phospholipids. Coagulation times (clotting times) are measured and compared to a standard curve using a reference standard in a parallel line assay.
In order to investigate the stabilizing effect of the compounds described by the current invention on Factor VIIa molecules in solution, a stability experiment was performed on 40K-PEG-rFVIIa.
The investigated formulations contained 0, 1, 10 or 30 mM n-propyloxycarbonyl-Phe(4-amidino)-Glu-Asn-Cha-(OEG)5-NH2, and all contained 20 mg/ml 40K-PEG-rFVIIa, 20 mM histidine, pH 7.0, 6% sucrose, 20 mM CaCl2, 0.5 mg/ml methionine. The samples were incubated 3 months at 25° C., and analysed for clot activity using the above-described “One-stage Coagulation Assay” (Assay 4) (see section “General Methods”).

Consider “Propyloxycarbonyl-(4-amidino-Phe)-Glu-Asn-Cha-[HN—(CH2—CH2—O)2—(CH2)—C(═O)]5—NH2 [Example 1]”, for which the “Clot activity relative to the initial value” reads like this: (1 mM inhibitor) 18%; (10 mM inhibitor) 86%; (30 mM inhibitor) 89%.
